The values that follow come from article PMC8920630 (Evidence-based Complementary and Alternative Medicine : eCAM, 2022).

Like-named read-outs stand apart in the source and are kept apart here.

The nature of data set [1]: PAMPA-BBB, prediction of CNS permeability. The following applies: for Prediction of CNS penetration: class from experimental Pe, limits of Di et al., 2003.
The nature of a further data set: in vitro. Conditions: PAMPA. A general note: PAMPA measures passive passage across an artificial lipid membrane.
For data set [2], the system named is primary porcine brain endothelial cells (PBECs). The following applies: cited from earlier work.
On the set-up of data set [3]: method as in PMID 27992940. Conditions: cited from earlier work.

For `CCn1cc(C(=O)O)c(=O)c2cc(F)c(N3CCNCC3)nc21` [Enoxacin], the “Prediction of CNS penetration” value in data set [1] is “CNS− (CNS−, low BBB permeation predicted; Pe, 10–6 cm s^−1 < 2.0)”.
In the case of `C[C@H]1[C@H](C)CC[C@]2(C(=O)O)CC[C@]3(C)C(=CC[C@@H]4[C@@]5(C)C[C@@H](O)[C@H](O)[C@@](C)(CO)[C@@H]5[C@H](O)C[C@]43C)[C@H]12` [Madecassic acid], the “Prediction of CNS penetration” value in data set [1] is “CNS− (CNS−, low BBB permeation predicted; Pe, 10–6 cm s^−1 < 2.0)”. For the same molecule, the Papp (as a rule, a coefficient for how fast a substance crosses the barrier) in “in vitro” was 0.27 ± 0.3 ×10⁻⁶ cm/s.
In the case of `C[C@H]1[C@H](C)CC[C@]2(C(=O)O)CC[C@]3(C)C(=CC[C@@H]4[C@@]5(C)C[C@@H](O)[C@H](O)[C@@](C)(CO)[C@@H]5CC[C@]43C)[C@H]12` [Asiatic acid], the “Prediction of CNS penetration” value in data set [1] is “CNS− (CNS−, low BBB permeation predicted; Pe, 10–6 cm s^−1 < 2.0)”. For the same molecule, in data set [2], the “BBB permeability in in vitro BBB model” value is reported as “highly BBB permeable”. In “in vitro”, this molecule showed a Papp at 18 h of 0.3 ± 0.3 ×10⁻⁶ cm/s.
Madecassoside: the Apparent oral bioavailability entry in data set [3] is “less than 1%”. For the same molecule, the “PAMPA-BBB (Pe) Experimental permeability” value in data set [1] (PBS: DMSO (95 : 5), 18 h, mean ± SEM) is 0.26 ± 0.7 10^−6 cm s^−1. In data set [1], the “Prediction of CNS penetration” value is given as “CNS− (CNS−, low BBB permeation predicted; Pe, 10–6 cm s^−1 < 2.0)”. In addition, the “BBB permeability in in vitro BBB model” value in data set [2] (primary porcine brain endothelial cells (PBECs)) is given as “highly BBB permeable”.
